Laboratory results as given in patent US11807693B2 (priority 2014, dated 2023).
Read-outs that look alike come from different tables or passages of the source. Starred links: 1 amine or outer side, 2 acyl side, 3 side chain; linkers in the order of their positions; H or OH if unused. Non-standard residues stand in square brackets, D forms with d. Residues, ends and D or L forms follow the SMILES beside them. *: point of attachment. dBip = N[C@H](Cc1ccc(-c2ccccc2)cc1)C(=O)O; Oic = O=C(O)[C@@H]1C[C@@H]2CCCC[C@@H]2N1; Phe(4-Cl) = N[C@@H](Cc1ccc(Cl)cc1)C(=O)O; Phe(4-I) = N[C@@H](Cc1ccc(I)cc1)C(=O)O; γGlu = O=C(O)[C@H](CCC(=O)[*:2])N[*:1]; d(β3hF) = N[C@@H](CC(=O)O)Cc1ccccc1; NMeR = CN[C@@H](CCCNC(=N)N)C(=O)O; Tridecanoyl = CCCCCCCCCCCCC(=O)*; hArg = N=C(N)NCCCC[C@H](N)C(=O)O; Cha = N[C@@H](CC1CCCCC1)C(=O)O; NMeL = CN[C@@H](CC(C)C)C(=O)O; αMeL = CC(C)C[C@](C)(N)C(=O)O; Nle = CCCC[C@H](N)C(=O)O; AEEA = NCCOCCOCC(=O)O; βAla = NCCC(=O)O

How the values were obtained:
[1] = In vitro stability in rat plasma; type: in vitro ADME
Method: (§1) Apelin peptides were spiked into rat plasma, liver homogenate, and kidney homogenate, which were obtained from commercial sources, to a final concentration of 5 μM. The samples were then incubated at 37° C. over a period of 4 hr. […] In a typical experiment, an aliquot of 100 μL of sample was taken from the incubation vial, followed by addition of 300 μL of MeOH containing internal standard. The quenched sample was centrifuged at 5500 g for 15 min after 15 min vortex in room temperature. The supernatant was then analyzed by high resolution LC-MS. […] In vitro plasma, […], and kidney stability results are shown below in Table 14.

[2] = In vitro stability in rat kidney homogenate; type: in vitro ADME; details: rat, tissue homogenate
Method: as §1

[3] = In vitro stability in rat liver homogenate; type: in vitro ADME; details: tissue homogenate
Method: as §1

rat APJ receptor = biological target: T1, rat APJ receptor (Rattus norvegicus, UniProt Q9JHG3); test: [35S] GTPγS assay, rat APJ receptor; type: biochemical
T1 construct: expressed in transfected cells
T1 sequence (Q9JHG3 1-377): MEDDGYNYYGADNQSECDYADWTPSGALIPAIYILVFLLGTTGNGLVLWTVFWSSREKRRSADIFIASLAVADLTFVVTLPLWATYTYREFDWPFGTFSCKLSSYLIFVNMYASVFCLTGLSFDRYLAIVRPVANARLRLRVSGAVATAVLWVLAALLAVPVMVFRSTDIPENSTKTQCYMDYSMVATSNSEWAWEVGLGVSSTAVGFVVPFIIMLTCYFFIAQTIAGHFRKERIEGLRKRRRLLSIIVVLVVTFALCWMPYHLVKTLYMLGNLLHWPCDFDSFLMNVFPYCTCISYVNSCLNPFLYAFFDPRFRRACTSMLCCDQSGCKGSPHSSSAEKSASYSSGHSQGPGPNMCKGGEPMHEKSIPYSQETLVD
Method: The membranes were incubated with modified peptides in the assay buffer. […] Bound [^35S] GTPγS was separated from free radiolabel by filtration. The filter bound radioactivity was determined by liquid scintillation counting.

[4] = Table 16, read-out: EC50 Rat APJ Receptor
[5] = rat APJ receptor, read-out: EC50 Rat APJ Receptor

| remaining at 4 h, 5 μM [1] [%] | remaining at 4 h, 5 μM [2] [%] | remaining at 4 h, 5 μM [3] [%] | EC50 (rat APJ receptor; [4]) [nM] | EC50 (rat APJ receptor; [5]) [nM] | Structure (SMILES) |
| --- | --- | --- | --- | --- | --- |
| 86 | < 1 | 3 | – | – | CCCCCCCCCCCCCCCCC(=O)N[C@@H](CCC(=O)NCCOCCOCC(=O)NCCOCCOCC(=O)N[C@@H](CCC(N)=O)C(=O)N[C@@H](CCCNC(=N)N)C(=O)N1CCC[C@H]1C(=O)N(C)[C@@H](CCCNC(=N)N)C(=O)N[C@@H](CC(C)C)C(=O)N[C@@H](CO)C(=O)N[C@@H](Cc1c[nH]cn1)C(=O)N[C@@H](CCCCN)C(=O)NCC(=O)N1CCC[C@H]1C(=O)N[C@@H](CCCC)C(=O)N1CCC[C@H]1C(=O)N[C@@H](Cc1ccc(Cl)cc1)C(=O)O)C(=O)O [compound 496] |
| 97 | 1 | 2 | – | – | CCCCCCCCCCCCC(=O)N[C@@H](CCC(=O)NCCOCCOCC(=O)NCCOCCOCC(=O)N[C@@H](CCC(N)=O)C(=O)N[C@@H](CCCNC(=N)N)C(=O)N1CCC[C@H]1C(=O)N(C)[C@@H](CCCNC(=N)N)C(=O)N[C@@H](CC1CCCCC1)C(=O)N[C@@H](CO)C(=O)N[C@@H](Cc1c[nH]cn1)C(=O)N[C@@H](CCCCN)C(=O)NCC(=O)N1[C@H](C(=O)N[C@@H](CCCC)C(=O)N2CCC[C@H]2C(=O)N[C@@H](CC(=O)O)Cc2ccccc2)C[C@@H]2CCCC[C@@H]21)C(=O)O [compound 380] ({Tridecanoyl-γGlu-AEEA-AEEA}-QRP[NMeR][Cha]SHKG[Oic][Nle]P[d(β3hF)]-OH) |
| – | 64 | – | – | – | CCCCCCCCCCCCC(=O)N[C@@H](CCC(=O)NCCOCCOCC(=O)NCCOCCOCC(=O)N[C@H](CCC(N)=O)C(=O)N[C@@H](CCCCNC(=N)N)C(=O)N1CCC[C@H]1C(=O)N[C@H](CCCNC(=N)N)C(=O)N[C@@H](CC1CCCCC1)C(=O)N[C@@H](CO)C(=O)N[C@@H](Cc1ccc(O)cc1)C(=O)N[C@@H](CCCCN)C(=O)NCC(=O)N1[C@H](C(=O)N[C@@H](CCCC)C(=O)N2CCC[C@H]2C(=O)N[C@@H](Cc2ccc(Cl)cc2)C(=O)O)C[C@@H]2CCCC[C@@H]21)C(=O)O [compound 373] ({Tridecanoyl-γGlu-AEEA-AEEA}-[dQ][hArg]P[dR][Cha]SYKG[Oic][Nle]P[Phe(4-Cl)]-OH) |
| > 90 | – | < 1 | 1.14 | – | CCCCCCCCCCCCC(=O)N[C@@H](CCC(=O)NCCOCCOCC(=O)NCCOCCOCC(=O)N[C@@H](CCC(N)=O)C(=O)N[C@@H](CCCNC(=N)N)C(=O)N(C)[C@@H](CCCNC(=N)N)C(=O)N[C@@](C)(CC(C)C)C(=O)N[C@@H](CO)C(=O)N[C@@H](Cc1c[nH]cn1)C(=O)N[C@@H](CCCCN)C(=O)NCC(=O)N1[C@H](C(=O)N[C@@H](CCCC)C(=O)N2CCC[C@H]2C(=O)N[C@@H](Cc2ccc(Cl)cc2)C(=O)O)C[C@@H]2CCCC[C@@H]21)C(=O)O [compound 396] ({Tridecanoyl-γGlu-AEEA-AEEA}-QR[NMeR][αMeL]SHKG[Oic][Nle]P[Phe(4-Cl)]-OH) |
| 2 | – | < 1 | 17.2 | – | CCCCCCCCCCCCC(=O)N[C@@H](CCC(=O)NCCOCCOCC(=O)NCCOCCOCC(=O)N[C@@H](CCC(N)=O)C(=O)N[C@@H](CCCNC(=N)N)C(=O)N1CCC[C@H]1C(=O)N(C)[C@@H](CCCNC(=N)N)C(=O)N[C@@H](CC(C)C)C(=O)N[C@@H](CO)C(=O)N[C@@H](Cc1c[nH]cn1)C(=O)NCCC(=O)NCC(=O)N1CCC[C@H]1C(=O)N[C@@H](CCCC)C(=O)N1CCC[C@H]1C(=O)N[C@@H](Cc1ccc(Cl)cc1)C(=O)O)C(=O)O [compound 424] ({Tridecanoyl-γGlu-AEEA-AEEA}-QRP[NMeR]LSH[βAla]GP[Nle]P[Phe(4-Cl)]-OH) |
| < 1 | – | < 1 | – | 5.94 | CCCCCC(=O)N[C@@H](CCC(=O)NCCOCCOCC(=O)NCCOCCOCC(=O)N[C@@H](CCC(N)=O)C(=O)N(C)[C@@H](CCCCNC(=N)N)C(=O)N1CCC[C@H]1C(=O)N(C)[C@@H](CCCNC(=N)N)C(=O)N[C@@](C)(CC(C)C)C(=O)N[C@@H](CO)C(=O)N[C@@H](Cc1c[nH]cn1)C(=O)N[C@@H](CCCCN)C(=O)NCC(=O)N1CCC[C@H]1C(=O)N[C@@H](CCCC)C(=O)N1CCC[C@H]1C(=O)N[C@@H](Cc1ccc(Cl)cc1)C(=O)O)C(=O)O [compound 561] |

Continued, molecule first:

| Structure (SMILES) | remaining at 4 h, 5 μM [1] [%] | remaining at 4 h, 5 μM [2] [%] | remaining at 4 h, 5 μM [3] [%] | EC50 (rat APJ receptor; [4]) [nM] | EC50 (rat APJ receptor; [5]) [nM] |
| --- | --- | --- | --- | --- | --- |
| CCCCCCCCCCCCC(=O)N[C@@H](CCC(=O)NCCOCCOCC(=O)NCCOCCOCC(=O)N[C@@H](CCCNC(=N)N)C(=O)N[C@@H](CCC(N)=O)C(=O)N[C@@H](CCCC)C(=O)N1CCC[C@H]1C(=O)N[C@@H](CCCCNC(=N)N)C(=O)N[C@@H](CC1CCCCC1)C(=O)N[C@@H](CO)C(=O)N[C@@H](Cc1c[nH]cn1)C(=O)N[C@@H](CCCCN)C(=O)NCC(=O)N1[C@H](C(=O)N[C@@H](CCCC)C(=O)N2CCC[C@H]2C(=O)N[C@@H](Cc2ccc(Cl)cc2)C(=O)O)C[C@@H]2CCCC[C@@H]21)C(=O)O [compound 339] ({Tridecanoyl-γGlu-AEEA-AEEA}-RQ[Nle]P[hArg][Cha]SHKG[Oic][Nle]P[Phe(4-Cl)]-OH) | 93 | 2 | 13 | – | – |
| CCCCCCCCCCCCC(=O)N[C@@H](CCC(=O)NCCOCCOCC(=O)NCCOCCOCC(=O)N[C@@H](CCCCNC(=N)N)C(=O)N[C@H](CCCNC(=N)N)C(=O)N[C@@H](CCC(N)=O)C(=O)N[C@@H](CCCC)C(=O)N1CCC[C@H]1C(=O)N[C@H](CCCNC(=N)N)C(=O)N(C)[C@@H](CC(C)C)C(=O)N[C@@H](CO)C(=O)N[C@@H](C)C(=O)N[C@@H](CCCCN)C(=O)NCC(=O)N1[C@H](C(=O)N[C@@H](Cc2ccc(I)cc2)C(=O)N2CCC[C@H]2C(=O)N[C@H](Cc2ccc(-c3ccccc3)cc2)C(=O)O)C[C@@H]2CCCC[C@@H]21)C(=O)O [compound 328] ({Tridecanoyl-γGlu-AEEA-AEEA}-[hArg][dR]Q[Nle]P[dR][NMeL]SAKG[Oic][Phe(4-I)]P[dBip]-OH) | 76 | 55 | 0 | – | – |
| CCCCCCCCCCCCC(=O)N[C@@H](CCC(=O)NCCOCCOCC(=O)NCCOCCOCC(=O)N[C@@H](CCC(N)=O)C(=O)N[C@@H](CCCNC(=N)N)C(=O)N1CCC[C@H]1C(=O)N(C)[C@@H](CCCNC(=N)N)C(=O)N[C@@H](CC1CCCCC1)C(=O)N[C@@H](CO)C(=O)N[C@@H](Cc1c[nH]cn1)C(=O)N[C@@H](CCCCN)C(=O)NCC(=O)N1CCC[C@H]1C(=O)N[C@@H](CCCC)C(=O)N1CCC[C@H]1C(=O)N[C@@H](Cc1ccc(Cl)cc1)C(=O)O)C(=O)O [compound 361] ({Tridecanoyl-γGlu-AEEA-AEEA}-QRP[NMeR][Cha]SHKGP[Nle]P[Phe(4-Cl)]-OH) | 34.5 | 0.5 | 1.5 | – | – |
| CCCC[C@H](NC(=O)[C@@H]1CCCN1C(=O)CNC(=O)[C@H](CCCCN)NC(=O)[C@H](Cc1c[nH]cn1)NC(=O)[C@H](CO)NC(=O)[C@](C)(CC(C)C)NC(=O)[C@H](CCCCNC(=N)N)NC(=O)[C@]1(C)CCCN1C(=O)[C@H](CCCNC(=N)N)NC(=O)[C@H](CCC(N)=O)NC(C)=O)C(=O)N1CCC[C@H]1C(=O)N[C@@H](Cc1ccc(Cl)cc1)C(=O)O [compound 69] | < 1 | < 1 | – | – | – |
| CCCC[C@H](NC(=O)[C@@H]1CCCN1C(=O)CNC(=O)[C@H](CCCCN)NC(=O)[C@H](Cc1c[nH]cn1)NC(=O)[C@H](CO)NC(=O)[C@](C)(CC(C)C)NC(=O)[C@H](CCCCNC(=N)N)NC(=O)[C@@H]1CCCN1C(=O)[C@@H](CCCNC(=N)N)NC(=O)[C@H](CCC(N)=O)NC(C)=O)C(=O)N1CCC[C@H]1C(=O)N[C@@H](Cc1ccc(Cl)cc1)C(=O)O [compound 70] | 86.1 | – | 84.9 | – | 9.74 |
| CCCCCCCCCCCCC(=O)N[C@@H](CCC(=O)NCCOCCOCC(=O)NCCOCCOCC(=O)N[C@@H](CCC(N)=O)C(=O)N[C@@H](CCCNC(=N)N)C(=O)N1CCC[C@H]1C(=O)N(C)[C@@H](CCCNC(=N)N)C(=O)N[C@@H](CC(C)C)C(=O)N[C@@H](CO)C(=O)N[C@@H](Cc1c[nH]cn1)C(=O)N[C@@H](CCCCN)C(=O)NCC(=O)N1[C@H](C(=O)N[C@@H](CCCC)C(=O)N2CCC[C@H]2C(=O)N[C@@H](Cc2ccc(Cl)cc2)C(=O)O)C[C@@H]2CCCC[C@@H]21)C(=O)O [compound 352] ({Tridecanoyl-γGlu-AEEA-AEEA}-QRP[NMeR]LSHKG[Oic][Nle]P[Phe(4-Cl)]-OH) | 88 | – | 0 | 0.23 | – |
| CC[C@H](NC(=O)[C@H](CC(N)=O)NC(=O)[C@H](Cc1c[nH]cn1)NC(=O)[C@H](CCCCN)NC(=O)[C@H](CCCNC(=N)N)NC(=O)[C@H](CC(C)C)NC(=O)[C@@H](N)CCCCN)C(=O)N[C@@H](CC(C)C)C(=O)N[C@@H](CCC(N)=O)C(=O)N[C@@H](CCCNC(=N)N)C(=O)N[C@@H](CCCNC(=N)N)C(=O)N[C@@H](CC)C(=O)N[C@@H](CCSC)C(=O)N1CCC[C@H]1C(=O)N[C@@H](CC(C)C)C(=O)N[C@@H](Cc1c[nH]cn1)C(=O)N[C@@H](CO)C(=O)N[C@@H](CCCNC(=N)N)C(=O)N[C@H](C(=O)N1CCC[C@H]1C(=O)N[C@@H](Cc1ccccc1)C(=O)N1CCC[C@H]1C(=O)O)C(C)C [compound 14] | < 1 | – | < 1 | – | 32.4 |
